Data reported in ChEMBL document CHEMBL2177104, “Identification of antitubercular benzothiazinone compounds by ligand-based design” (J Med Chem, 2012).
Converted amounts (≈) assume the structure as drawn. The source made the active and inactive calls. The calls are words filed in the database; no cut-off is given here.

Legend:
[1] = tested on: Mycolicibacterium fortuitum; assay: Antimycobacterial activity against Mycobacterium fortuitum B; type: functional
[2] = tested on: Mycolicibacterium smegmatis; assay: Antimycobacterial activity against Mycobacterium smegmatis 700084 after 48 hrs by broth microdilution assay; type: functional; details: Mycolicibacterium smegmatis, 700084, 48 h
[3] = Chemical stability in buffer; type: physicochemical
[4] = Cytotoxicity against human HEK293 cells after 24 hrs by MTT assay; type: cell-based
[5] = Cytotoxicity against human HepG2 cells after 24 hrs by MTT assay; type: cell-based
Liver microsomes = assay: Metabolic stability in human liver microsomes; type: ADME, Microsome
Liver = assay: Metabolic stability in mouse liver microsomes; type: ADME, Microsome
Plasma [6] = assay: Metabolic stability in human plasma; type: ADME, cell-free
[7] = Kinetic solubility of the compound at pH 7.4; type: physicochemical; details: buffer; for solubility kinetic: read-out: Kinetic_solubility
Plasma [8] = assay: Metabolic stability in mouse plasma; type: ADME, cell-free
[9] = Antiproliferative activity against human HUVEC cells after 72 hrs by methylene blue staining; type: cell-based
[10] = Antiproliferative activity against human K562 cells after 72 hrs by electronic cell analysis; type: cell-based
[11] = Cytotoxicity against human HeLa cells after 72 hrs by methylene blue staining; type: cell-based
[12] = Therapeutic index, ratio of GI50 for human HUVEC cells to MIC for Mycobacterium smegmatis 700084; type: cell-based; details: read-out: TI
[13] = Therapeutic index, ratio of CC50 for human HeLa cells to MIC for Mycobacterium smegmatis 700084; type: cell-based; details: read-out: TI
[14] = Therapeutic index, ratio of GI50 for human K562 cells to MIC for Mycobacterium smegmatis 700084; type: cell-based; details: read-out: TI
[15] = tested on: Mycolicibacterium smegmatis; assay: Ratio of MIC for Mycobacterium smegmatis 700084 in […] to MIC for Mycobacterium smegmatis 700084 in MHB medium; type: functional
[16] = tested on: Mycobacterium tuberculosis; assay: Antimycobacterial activity against Mycobacterium tuberculosis H37Rv expressing GFP; type: functional
Mycolicibacterium aurum = assay: Antimycobacterial activity against Mycobacterium aurum SB66; type: functional, organism-based
[17] = tested on: Mycobacterium tuberculosis; assay: Ratio of isoniazid MIC to compound MIC for Mycobacterium tuberculosis H37Rv; type: functional

| SMILES | MIC [1] [mg/L] | MIC [2] [mg/L] | Stability [3] [%] | CC50 at 24 h [4] [µM] | CC50 at 24 h [5] [µM] | Stability (Liver microsomes) [%] | Stability (Liver) [%] | Stability (Plasma [6]) [%] | solubility kinetic [7] [µM] | Stability (Plasma [8]) [%] | GI50 at 72 h [9] [µM] | GI50 at 72 h [10] [µM] | CC50 at 72 h [11] [µM] | further results |
| --- | --- | --- | --- | --- | --- | --- | --- | --- | --- | --- | --- | --- | --- | --- |
| O=c1nc(N2CCC(F)(F)CC2)sc2c([N+](=O)[O-])cc(C(F)(F)F)cc12 | > 0.1 | 0.25 (≈ 0.632 µM) | 101 | > 10 | > 10 | 61 | 80 | 64 | 8.1 (≈ 3.2 µg/mL) | 92 | – | – | – | – |
| O=c1nc(NCc2ccc3c(c2)OCCO3)sc2c([N+](=O)[O-])cc(C(F)(F)F)cc12 | 0.012 (≈ 0.0273 µM) | 0.004 (≈ 0.0091 µM) | 91 | > 10 | > 10 | 43 | 32 | 86 | – | 114 | 20 | 37 | 41 | – |
| Cc1ccc(CNc2nc(=O)c3cc(C(F)(F)F)cc([N+](=O)[O-])c3s2)n1C | 0.05 (≈ 0.126 µM) | 0.125 (≈ 0.314 µM) | 14 | > 10 | > 10 | 28 | 37 | 108 | – | 93 | 17 | 21 | 48 | – |
| CN(c1nc(=O)c2cc(C(F)(F)F)cc([N+](=O)[O-])c2s1)[C@H]1CCN(Cc2ccccc2)C1 | – | 0.004 (≈ 0.00861 µM) | 96 | > 10 | > 10 | 6 | 7 | 92 | 2.97 (≈ 1.38 µg/mL) | 114 | 18 | 30 | 38 | – |
| CN(C)C(=O)C1CCN(c2nc(=O)c3cc(C(F)(F)F)cc([N+](=O)[O-])c3s2)CC1 | – | – | – | – | – | – | – | – | – | – | – | – | – | Kinetic_solubility [7]: soluble |
| Cc1ccc(CNc2nc(=O)c3cc(C(F)(F)F)cc([N+](=O)[O-])c3s2)o1 | – | – | – | – | – | – | – | – | 1.82 (≈ 0.701 µg/mL) | – | – | – | – | – |
| COC(=O)[C@@H]1OC2(CCN(c3nc(=O)c4cc(C(F)(F)F)cc([N+](=O)[O-])c4s3)CC2)O[C@H]1c1ccccc1 | 0.00625 (≈ 0.0113 µM) | 0.015 (≈ 0.0272 µM) | 82 | > 10 | > 10 | – | – | 90 | – | 88 | > 50 | > 50 | > 50 | – |
| CCN(CCN(C)C)c1nc(=O)c2cc(C(F)(F)F)cc([N+](=O)[O-])c2s1 | – | – | – | – | – | – | – | – | 10.6 (≈ 4.14 µg/mL) | – | – | – | – | – |
| CN(C)c1ccc(CN(C)c2nc(=O)c3cc(C(F)(F)F)cc([N+](=O)[O-])c3s2)cc1 | 0.00625 (≈ 0.0143 µM) | 0.001 (≈ 0.00228 µM) | 95 | > 10 | > 10 | 6 | 8 | 90 | – | 104 | > 50 | > 50 | > 50 | selectivity ratio [12]: > 50000; selectivity ratio [13]: > 50000; selectivity ratio [14]: > 50000 |
| O=C(c1ccoc1)N1CCN(c2nc(=O)c3cc(C(F)(F)F)cc([N+](=O)[O-])c3s2)CC1 | – | – | – | – | – | – | – | – | 21.8 (≈ 9.91 µg/mL) | – | – | – | – | – |
| O=c1nc(N2CCN(c3nccs3)CC2)sc2c([N+](=O)[O-])cc(C(F)(F)F)cc12 | 0.025 (≈ 0.0564 µM) | 0.25 (≈ 0.564 µM) | 98 | > 10 | > 10 | 42 | 13 | 99 | – | 111 | – | – | – | – |
| O=c1nc(N2CCC(c3ccccc3)CC2)sc2c([N+](=O)[O-])cc(C(F)(F)F)cc12 | 0.0125 (≈ 0.0287 µM) | 0.004 (≈ 0.00919 µM) | 82 | > 10 | > 10 | 120 | 75 | 96 | 0.06 (≈ 0.0261 µg/mL) | 71 | > 50 | > 50 | > 50 | Ratio [15]: 3; selectivity ratio [12]: > 12500; selectivity ratio [13]: > 12500; selectivity ratio [14]: > 12500 |
| C[C@H]1COC2(CCN(c3nc(=O)c4cc(C(F)(F)F)cc([N+](=O)[O-])c4s3)CC2)O1 [BTZ-043] | 0.00156 (≈ 0.00362 µM) | 0.008 (≈ 0.0185 µM) | 98 | > 10 | > 10 | 98 | 45 | 107 | 6.8 (≈ 2.93 µg/mL) | 97 | 8 | 11 | > 50 | MIC [16]: 0.001 mg/L (≈ 0.00232 µM); selectivity ratio [12]: 1190; Activity (Mycolicibacterium aurum): inactive; selectivity ratio [13]: > 6250; Ratio [17]: 20; selectivity ratio [14]: 1190 |
| CCCOCC1COC2(CCN(c3nc(=O)c4cc(C(F)(F)F)cc([N+](=O)[O-])c4s3)CC2)O1 (centres undefined) | 0.0031 (≈ 0.00633 µM) | 0.004 (≈ 0.00817 µM) | 99 | > 10 | > 10 | 6 | 9 | 98 | – | 103 | > 50 | > 50 | 43 | – |
| CN(Cc1ccoc1)c1nc(=O)c2cc(C(F)(F)F)cc([N+](=O)[O-])c2s1 | – | – | – | – | – | – | – | – | – | – | – | – | – | Kinetic_solubility [7]: soluble |
| COC(=O)C1CN(c2nc(=O)c3cc(C(F)(F)F)cc([N+](=O)[O-])c3s2)CCC12OC[C@H](C)O2 (some centres undefined) | 0.0125 (≈ 0.0255 µM) | 0.015 (≈ 0.0306 µM) | 98 | > 10 | > 10 | 81 | 29 | 51 | – | 56 | 16 | 22 | 36 | – |
| O=c1nc(NCc2ccco2)sc2c([N+](=O)[O-])cc(C(F)(F)F)cc12 | – | – | – | – | – | – | – | – | 1.63 (≈ 0.605 µg/mL) | – | – | – | – | – |
| CN(C(=O)CN1CCN(c2nc(=O)c3cc(C(F)(F)F)cc([N+](=O)[O-])c3s2)CC1)c1ccccc1 | 0.0125 (≈ 0.0246 µM) | 0.015 (≈ 0.0296 µM) | 78 | > 10 | > 10 | 13 | 2 | 95 | 11.9 (≈ 6.04 µg/mL) | 115 | 18 | 30 | 39 | – |
